Patent US11649430B2 (priority 2018, dated 2023)
Entries after “also recorded” stand apart in the source; their conditions may differ.

Experiments:
[1] = system: A. flavus; format: cell-based, Aspergillus flavus; details: for germination rate: 0.1 mM, 0.2 mM, 0.4 mM
[2] = Antioxidant Assay (OxiSelect Total Antioxidant Capacity Assay Kit); format: biochemical; details: 0-1 mM; compared to uric acid; absorbance 490 nm (Supporting Figure S9)
Procedure: Antioxidant Assay: ROS quenching potential of the imizoquins was analyzed using the OxiSelect™ Total Antioxidant Capacity Assay Kit (Cell Biolabs, Inc., San Diego, Calif.) following the manufacturer's instructions. Briefly, 20 μL of diluted uric acid standards (0-1 mM) and imizoquins (0-1 mM) were combined with 180 μL of 1× reaction buffer/well in a Costar® 96 well plate. After mixing thoroughly, an initial absorbance was obtained at 490 nm using a BioTek EPOCH 2 microplate reader with Gen5 acquisition software. Then 50 μL of the 1× copper ion reagent was added into each well and the plate was incubated for 5 minutes on an orbital shaker. To terminate the reaction, 50 μL of 1× stop solution was added and the final absorbance was measured again at 490 nm.

[3] = system: Penicillium expansum; test: Germination assay with purified imizoquins, Penicillium expansum; format: cell-based
Procedure: (§1) Germination Assay: Each strain was grown in triplicate in 2 mL of liquid GMM inoculated with 1×10^5 spores mL^−1 in a well of a sterile Costar® 12-well plate (Corning) and incubated at 30° C. in OKO-Lab microscopic enclosure equipped with a Nikon Eclipse Ti inverted microscope. Germinated spores were observed using a Nikon Plan Fluor 20xPh1 DLL objective and phase-contrast microscope. A spore was considered germinated when the length of the spore protrusion (emerging hyphal tip) exceeded the spore's diameter^15,33. Images were captured hourly using the Nikon NIS Elements AR software package (v. 4.13), and the germination rate was determined by counting germlings per hundred spores. The experiment was repeated three times.
(§2) Germination Assay with Purified Imizoquins. Compounds 1-2 were assessed for their effect on germination of different fungal strains. Each metabolite was dissolved in methanol at a starting concentration of 10 mg mL^−1 and stored at −80° C. Sterile Costar® 96 well plates containing 100 μL of GMM supplemented with various concentrations of purified 1-2 (0.1 mM, 0.2 mM, 0.4 mM, 0.8 mM and 1.2 mM) were inoculated at 1×10^5 spores/well. Spores treated with equivalent volumes of the carrier (methanol) served as negative controls for each experiment. The germination rate (%) was measured as above with each treatment assayed in triplicate.

[4] = system: A. nidulans; test: Germination assay with purified imizoquins, A. nidulans; format: cell-based, Aspergillus nidulans
Procedure: as §1, §2

[5] = system: R. solanacearum; format: cell-based, Ralstonia solanacearum; details: WT (GMI1000) strain; 0.4 mM; 24 hours
[6] = system: A. fumigatus; test: Germination assay with purified imizoquins, A. fumigatus; format: cell-based, Aspergillus fumigatus
Procedure: as §1, §2

[7] = system: A. oryzae; test: Germination assay with purified imizoquins, A. oryzae; format: cell-based, Aspergillus oryzae
Procedure: as §1, §2

[8] = system: A. flavus; test: Germination ROS assay (H2O2 plus imizoquin A); format: cell-based, Aspergillus flavus; details: 0.7 mM H2O2, 0.1, 0.2, 0.4 mM compound
[9] = system: A. flavus spores

## COc1c(O)cc2c(c1O)CN(C(=O)[C@@H](N)Cc1c[nH]c3ccccc13)[C@H](C(=O)N[C@@H](CC(CO)CO)C(=O)O)C2 [TMC-2A, reference compound]
[1]
  germination: similarly accelerated germination
[2]
  antioxidant activity (ROS quenching potential): showed antioxidant properties

## COC1=C(O)C(=O)C2=C(C1=O)[C@H]1N[C@@H](Cc3c[nH]c4ccccc34)C(=O)N1C(C(=O)N[C@@H](CC(C)CO)C(=O)O)C2 (stereo partly shown) [Imizoquin A, imizoquin A]
[3]
  concentration up to which the germination effect is dose-dependent: about 0.4 mM
  germination rate: increased the germination rate
[1]
  germination rate: restores germination in the ΔimqK mutant in a dose-dependent manner; also recorded: increased germination of both ΔimqK and WT to above that of untreated OE::imqK
[4]
  germination rate: increases the germination rate
[4]; A. nidulans
  concentration up to which the germination effect is dose-dependent: about 0.4 mM
[5]
  R. solanacearum growth (OD): decreases R. solanacearum growth modestly
[6]
  germination rate: increases the germination rate
[6]; A. fumigatus
  concentration up to which the germination effect is dose-dependent: about 0.4 mM
[7]; A. oryzae
  concentration up to which the germination effect is dose-dependent: about 0.4 mM
[7]; A. oryzae (Supporting Figure S8)
  germination rate: increases the germination rate
[8]; WT strain
  germination rate in the presence of H2O2: counteracted the germination inhibitory activity of H2O2
[8]; WT strain, listed as imizoquin A
  germination rate in the presence of H2O2: protected spores from the germination inhibitory effects of H2O2
[8]; ΔimqK strain
  germination rate in the presence of H2O2: counteracted the germination inhibitory activity of H2O2
[8]; ΔimqK strain, listed as imizoquin A
  germination rate in the presence of H2O2: protected spores from the germination inhibitory effects of H2O2
[2]
  antioxidant activity (ROS quenching potential): significant antioxidant activities

## COC1=C(O)C(=O)C2=C(C1=O)[C@H]1N[C@@H](Cc3c[nH]c4ccccc34)C(=O)N1C(C(=O)N[C@@H](CC(CO)CO)C(=O)O)C2 (stereo partly shown) [Imizoquin B, imizoquin B]
[1]
  germination rate: restores germination in the ΔimqK mutant in a dose-dependent manner; also recorded: increased germination of both ΔimqK and WT to above that of untreated OE::imqK
[5]
  R. solanacearum growth (OD): decreases R. solanacearum growth modestly
[8]; WT strain
  germination rate in the presence of H2O2: protected spores from the germination inhibitory effects of H2O2
[8]; ΔimqK strain
  germination rate in the presence of H2O2: protected spores from the germination inhibitory effects of H2O2
[2]
  antioxidant activity (ROS quenching potential): significant antioxidant activities

## COc1c(O)cc2c(c1O)CN(C(=O)[C@@H](N)Cc1c[nH]c3ccccc13)[C@H](C(=O)N[C@@H](CC(C)CO)C(=O)O)C2 (stereo partly shown) [TMC-2B, reference compound]
[1]
  germination: similarly accelerated germination
[2]
  antioxidant activity (ROS quenching potential): showed antioxidant properties

## OO [H2O2, hydrogen peroxide]
[9]
  spore survival: 50%
